Assay results taken from patent publication US20220249441A1, “Homodimeric Tobramycin Adjuvant Repurposes Novobiocin as an Effective Antibacterial Agent Against Gram-Negative Bacteria” (priority 2019, published 2022).
Values after ≈ are worked out from the molar mass of the structure shown.

Tests used:
[1] = test system: MDR/XDR P. aeruginosa, Acinetobacter baumannii, Escherichia coli, Klebsiella pneumoniae, and Enterobacter cloacae; assay type: cell-based
Experimental: Next, we investigated whether tobramycin by itself would potentiate novobiocin against Gram-negative bacteria.
Checkerboard Assay. Combination studies with different antibiotics were performed in 96-well plates as previously described (19). Briefly, the antibiotic of interest was serially diluted in MHB along the abscissa while the adjuvant (tobramycin homodimer) was serially diluted in MHB along the ordinate. This creates a 10×7 matrices wherein each well consists of a combination of different antibiotic and adjuvant concentrations. Overnight grown bacterial cultures were diluted in saline to achieve a 0.5 McFarland turbidity, followed by 1:50 dilution in Mueller-Hinton broth (MHB) for inoculation to a final concentration of approximately 5×10^5 CFU/mL. […] MIC was recorded as wells with the lowest concentration of drugs with no bacterial growth. The fractional inhibitory concentration (FIC) for each antibiotic was calculated by dividing the MIC of the antibiotic in the presence of adjuvant by the MIC of the antibiotic alone. Similarly, the FIC of adjuvant was calculated by dividing the MIC of the adjuvant in the presence of antibiotic by the MIC of the adjuvant alone. FIC index is the sum of both FICs. FIC indices of ≤0.5 were deemed synergistic; >0.5-4, no interaction; and >4, antagonistic.

[2] = test system: A. baumannii ATCC 17978 and resistant mutants; test: microbe, parasite or virus in culture; assay type: cell-based, Acinetobacter baumannii
Experimental: Antimicrobial Susceptibility Assay. The in vitro antimicrobial activity of all compounds/antibiotics against a panel of bacteria was evaluated by microbroth dilution method in accordance with the Clinical and Laboratory Standards Institute (CLSI) guidelines (using ATCC strains as quality control strains) (54). Overnight grown bacterial cultures were diluted in saline to achieve a 0.5 McFarland turbidity, followed by 1:50 dilution in Mueller-Hinton broth (MHB) for inoculation to a final concentration of approximately 5×10^5 CFU/mL. […] The lowest concentration that prevented the visible growth of bacteria was defined as the MIC for each antimicrobial agent. The broth with or without bacterial cells was used as positive or negative control, respectively.
(§1) Development of Resistance Study. […] Tobramycin and colistin were included as controls. At 24-hour intervals, the cultures were assessed for growth. […] This serial passaging was repeated for 8 days.

[3] = test system: P. aeruginosa; test: Checkerboard assay (antibiotic + adjuvant combination MIC); assay type: cell-based, Pseudomonas aeruginosa
[4] = test system: A. baumannii ATCC 17978; test: microbe, parasite or virus in culture; assay type: cell-based, Acinetobacter baumannii; details: for fold change in MIC: after 7 days of serial passaging
Experimental: as §1

[5] = test system: P. aeruginosa PAO1 and efflux deficient mutants, MDR/XDR isolates; test: microbe, parasite or virus in culture; assay type: cell-based, Pseudomonas aeruginosa; details: Pseudomonas aeruginosa
Experimental: Antimicrobial Susceptibility Assay. The in vitro antimicrobial activity of all compounds/antibiotics against a panel of bacteria was evaluated by microbroth dilution method in accordance with the Clinical and Laboratory Standards Institute (CLSI) guidelines (using ATCC strains as quality control strains) (54). […] The broth with or without bacterial cells was used as positive or negative control, respectively.

[6] = test system: P. aeruginosa PAO1; test: Outer membrane permeabilization assay (NPN uptake); assay type: cell-based, Pseudomonas aeruginosa
Experimental: Outer Membrane Permeabilization Assay. […] Briefly, an overnight grown P. aeruginosa PAO1 culture was subcultured (1 in 100) in fresh LB broth and grown to a mid-logarithmic phase (approximately 2 h, OD600=0.5-0.6). The cells were harvested by centrifuging for 10 min at 1000 g and room temperature, washed twice in PBS, and resuspended in half volume of PBS. This suspension was used in standard microtiter plate assay. […] PMBN, a known outer membrane permeabilizer, served as a positive control while cells +NPN (without test compounds) served as a negative control. Four independent replicates were conducted, and the data were corrected for any background fluorescence.

[7] = test system: Galleria mellonella; test: Galleria mellonella tolerability study; assay type: in vivo; details: 100 mg/kg single dose; after 96 h (4 days)
Experimental: Galleria mellonella In vivo Larvae-Infection Model. In vivo synergistic effects were determined using Galleria mellonella infection model, as previously described (49). Briefly, larvae were purchased from The Worm Lady Live Feeder (ON, Canada), stored in their natural habitat at 16° C., and used within 10 days of delivery. The larvae (average weight of 250 mg) were used for tolerability and efficacy studies. Tolerability study was performed by injecting a 10 μL aliquot of antimicrobial agents only at concentrations equivalent to 100 mg/kg or 200 mg/kg. The larvae (ten in each group) were incubated at 37° C. and monitored for 96 h. For efficacy studies, the virulence and bacterial load required to kill 100% of the larvae within 24 h (with no treatment) was first determined, which is approximately 10 CFU. Overnight grown culture of respective MDR A. baumannii isolate was standardized to 0.5 McFarland standard and diluted in PBS to a final concentration of 10^3 CFU/mL. A 10 μL aliquot of this solution (˜10 CFU) was injected into each larva and incubated for 3 h at 37° C. […] Larvae treated with 10 μL of PBS or high concentrations of test antibiotics served as negative and positive control, respectively. The larvae were incubated at 37° C. in Petri dishes lined with filter paper and scored for survivability every 6 h for up to 36 h. […]

[8] = Acinetobacter baumannii, ATCC17978, 18 h, Mutant C (seven serial passages, sub-MICs novobiocin + 7.1 μM compound 1)
[9] = Acinetobacter baumannii, ATCC17978, Mutant A (seven serial passages, sub-MICs novobiocin)
[10] = Acinetobacter baumannii, ATCC17978, Mutant B (seven serial passages, sub-MICs colistin)
[11] = Acinetobacter baumannii, ATCC17978, Wild-type A. baumannii ATCC 17978
[12] = tobramycin-resistant MDR/XDR isolates

CC(C)(O/N=C(\C(=O)N[C@@H]1C(=O)N2C(C(=O)[O-])=C(C[n+]3ccccc3)CS[C@H]12)c1csc(N)n1)C(=O)O [Ceftazidime, reference compound]
synergy with novobiocin ([1]; Gram-negative bacteria): did not show any synergy | MIC [2, 8]: 16 µg/mL | MIC [2, 9]: 32 µg/mL (≈ 58.5 µM) | MIC [2, 10]: 1 µg/mL (≈ 1.83 µM) | MIC [2, 11]: 16 µg/mL (≈ 29.3 µM) | MIC Alone ([3]; P. aeruginosa PAO1, β-lactam antibiotic alone): 2 µg/mL | MIC of CAZ alone ([3]; PA 259-96918): 512 µg/mL | MIC of CAZ alone ([3]; PA 260-97103): 32 µg/mL | MIC of CAZ alone ([3]; PA 262-101856): 16 µg/mL | MIC of CAZ alone ([3]; PA 264-104354): 128 µg/mL | MIC of CAZ alone ([3]; PA 86052): 64 µg/mL | MIC of CAZ alone ([3]; PA 88949): 64 µg/mL | MIC of CAZ alone ([3]; PA 91433): 4 µg/mL | MIC of CAZ alone ([3]; PA 100036): 8 µg/mL | MIC of CAZ alone ([3]; PA 101243): 64 µg/mL | MIC of CAZ alone ([3]; PA 101885): 8 µg/mL | MIC of CAZ alone ([3]; PA 107092): 128 µg/mL | MIC of CAZ alone ([3]; PA 108590): 32 µg/mL | MIC of CAZ alone ([3]; PA 109084): 64 µg/mL | MIC of CAZ alone ([3]; PA 114228): 8 µg/mL | MIC of CAZ alone ([3]; PAO1): 2 µg/mL | MIC of CAZ alone ([3]; PAO200 (efflux-deficient)): 1 µg/mL | MIC of CAZ alone ([3]; PAO750 (efflux-deficient)): 0.5 µg/mL

NC[C@H]1O[C@H](O[C@H]2[C@H](O)[C@@H](O[C@H]3O[C@H](CO)[C@@H](O)[C@H](N)[C@H]3O)[C@H](N)C[C@@H]2N)[C@H](N)C[C@@H]1O [Tobramycin]
FICI with novobiocin ([1]; tobramycin-susceptible and tobramycin-resistant Gram-negative bacteria strains): 0.75 | MIC ([4]; Acinetobacter baumannii, ATCC17978, 168 h, read-out: MIC after serial passaging): 512 µg/mL (≈ 1100 µM) | fold change in MIC [4]: 512 fold | MIC [2, 8]: 1 µg/mL | MIC [2, 9]: 1 µg/mL (≈ 2.14 µM) | MIC [2, 10]: 0.25 µg/mL (≈ 0.535 µM) | MIC [2, 11]: 1 µg/mL (≈ 2.14 µM) | MIC [5]: 1 µg/mL (≈ 2.14 µM) | MIC ([5]; PAO200 (first column so headed)): 1 µg/mL (≈ 2.14 µM) | MIC ([5]; PAO200 (second column so headed)): 1 µg/mL (≈ 2.14 µM) | interaction with antibiotics (checkerboard) ([3]; PAO1, all antibiotics tested except tobramycin, vancomycin and colistin): not synergistic | FICI with ceftazidime or aztreonam [3, 12]: 0.56-0.75 | tobramycin concentration at which synergy with imipenem was observed [3, 12]: ≥ 100 µM | FICI with aztreonam, ceftazidime and imipenem ([3]; tobramycin-susceptible MDR isolates): 0.75 | FICI with aztreonam, ceftazidime and imipenem ([3]; wildtype P. aeruginosa): 0.75-1.00 | outer membrane permeabilization (NPN fluorescence) [6]: weak fluorescence

Colistin
fold change in MIC [4]: 1024 fold | MIC ([2]; Mutant A (seven serial passages, sub-MICs novobiocin)): 8 µg/mL | MIC ([2]; Mutant B (seven serial passages, sub-MICs colistin)): 1024 µg/mL | MIC ([2]; Mutant C (seven serial passages, sub-MICs novobiocin + 7.1 μM compound 1)): 0.031 µg/mL | MIC ([2]; Wild-type A. baumannii ATCC 17978): 0.063 µg/mL | larvae killed (mortality) [7]: 90%
